According to ChEMBL document CHEMBL3430912, “GSK Tres Cantos Anti-Kinetoplastid Screening (TCAKS) Data”:

Key:
Leishmania donovani [1] = assay: GSK_TCAKS: pIC50 Leishmania donovani viability assay using fluorescence intensity. Assay plates (1536-well) were prepared by adding 30nL per well of compound. For single shot assay, the final compound concentration was 5uM. […] Briefly, eGFP LdBOB axenic amastigotes were harvested, fixed and counted in a CASY cell counter (Roche-Applied Science). A final concentration of 1.5 * 10^5 cells per well were prepared in amastigote media containing 500 U/mL penicillin/streptomycin (Invitrogen) and 6uL was dispensed to each experimental well using a Multidrop Combi dispenser (Thermo Scientific). 6uL of assay media was dispensed to control columns used as reference for 100% compound response. Following incubation for 72 h at 37C, 5% CO2, 2 uL of resazurin was added to each well at a final concentration of 0.5 mM in phosphate buffered saline (PBS) with IGEPAL (Sigma-Aldrich), 0.05% (v/v).; assay type: functional, organism-based
Leishmania donovani [2] = assay: (§1) GSK_TCAKS: pIC50 Leishmania donovani Imaging: Infected Macrophages. Assay plates (384-well) were prepared by adding 250nL of compound to each well. For single shot assay, the final compound concentration was 5 uM. […] Automated image analysis was performed with a script developed on Acapella High Content Imaging and Analysis Software (PerkinElmer). Output: Percent of infected macrophage cells were reported for each well.; assay type: functional, organism-based, Homo sapiens; conditions: THP-1
[3] = system: Trypanosoma brucei brucei; assay: GSK_TCAKS: pIC50 Trypanosoma brucei viability assay using fluorescence intensity. Assay plates (1536-well) were prepared by dispensing 25nL of compound solution per well using an Echo acoustic dispenser (Labcyte).; assay type: functional, organism-based; conditions: Lister 427, 2 h
NIH3T3 = assay: GSK_TCAKS: pIC50 NIH 3T3 cell line viability assay using luminiscence. Tissue culture surface treated assay plates (1536-well) were used. […] The 100% cells survival control was determined exposing the host-cells to a 0.5% DMSO concentration, whereas the 100% toxicity control was achieved by seeding the cells in presence of Amphotericin B at 50uM. Plates were incubated for four days at 37C, 5% CO2. The assay readout was developed by addition of 5uL of CellTiter-Glo Reagent following the manufacturer's instructions. Luminiscence was measured using a ViewLux.; assay type: functional, cell-based; conditions: Mus musculus, NIH3T3, 96 h
[4] = target: Sterol 14-alpha demethylase (Trypanosoma cruzi (strain CL Brener), UniProt Q7Z1V1); assay: GSK_TCAKS: pIC50 CYP51 from Trypanosoma cruzi.; assay type: functional
Chain of Sterol 14-alpha demethylase (Q7Z1V1 whole entry): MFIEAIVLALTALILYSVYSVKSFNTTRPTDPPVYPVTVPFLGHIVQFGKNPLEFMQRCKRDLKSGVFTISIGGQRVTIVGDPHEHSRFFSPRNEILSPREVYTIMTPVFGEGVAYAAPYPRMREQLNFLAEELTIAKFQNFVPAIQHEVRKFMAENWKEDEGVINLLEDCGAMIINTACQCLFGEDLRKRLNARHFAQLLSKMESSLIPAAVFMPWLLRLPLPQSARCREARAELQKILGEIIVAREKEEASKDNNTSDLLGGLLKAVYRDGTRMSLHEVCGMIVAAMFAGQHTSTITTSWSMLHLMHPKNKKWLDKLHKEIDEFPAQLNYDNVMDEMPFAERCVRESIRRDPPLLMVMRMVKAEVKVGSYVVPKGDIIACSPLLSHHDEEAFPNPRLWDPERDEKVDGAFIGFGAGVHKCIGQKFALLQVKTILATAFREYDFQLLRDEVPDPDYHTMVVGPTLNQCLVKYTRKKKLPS

Trypanosoma cruzi [5] = assay: (§2) GSK_TCAKS: pIC50 Trypanosoma cruzi Imaging: Infected Cells. […] Cells were then washed once with PBS before infection. T. cruzi trypomastigotes, collected at days 5 to 8 after infection from LLC-MK2 parasite infected cultures, were allowed to swim out for 4h at 37C from a centrifuged pellet (2,500 rpm/10 min/room temperature). Trypomastigotes were then collected and counted in a CASY Cell Counter. Trypomastigotes, in supplemented DMEM, were added to H9c2 cultures in a multiplicity of infection of 1 and incubated for 18 h. Cells were washed once with PBS before incubation of the infected H9c2 monolayer with trypsin (Life-Technologies) to detach cells from the flask. Cells were counted in a CASY Cell Counter using a 150 um capillary and their density set at 5 * 10^4 cells per mL in supplemented assay DMEM. Infected H9c2 were dispensed into 384-well poly-lysine coated assay plates at 50uL per well using a Multidrop Combi dispenser. After seeding them, the plates were incubated at 37C, 5% CO2 for 72h. Cultures were then fixed and stained by addition of 50 uL of a solution containing 8% formaldehyde and 4 uM DRAQ5 DNA dye (BioStatus, UK) per well. […] Five images were collected per well for reliable statistical analysis. Automated image analysis was performed with a script developed on Acapella High Content Imaging and Analysis Software (PerkinElmer). Output: percentage of infected cells per well as a second infection marker.; assay type: functional, organism-based, Rattus norvegicus; conditions: H9c2, 4 h
[6] = GSK_TCAKS: pIC50 HepG2 human cell line viability assay using luminiscence. […] Seeding density was checked to ensure that new mono-layers were not more than 50% confluent at the time of harvesting. Cell suspension was added to 500 mL of the same medium at a final density of 1.2 * 10^5 cells/mL. This cell suspension was dispensed (25 uL, 3000 cells per well) into 384-well clear-bottom plates using a Multidrop Combi dispenser. Prior to addition of the cell suspension, the screening compounds (250 nL) were pre-dispensed into the plates with an Echo liquid handler. Plates were incubated for 48 h at 37C, 5% CO2. After incubation, plates equilibrated at room temperature for 30 min before proceeding to develop the luminescent signal. The signal developer, CellTiter-Glo Reagent, was allowed to equilibrate at room temperature for 30 min and added to the plates (25uL per well) using a Multidrop Combi dispenser. Plates were left for 10 min at room temperature for stabilization and then read using a ViewLux.; assay type: toxicity, cell-based
Trypanosoma cruzi [7] = assay: GSK_TCAKS: pIC50 Trypanosoma cruzi viability assay using beta-GAL activity. This assay was run at single shot at 5uM compound concentration per well. The biological reagents consisted of NIH-3T3 host cells and trypomastigotes parasitic cells; both cell types were set to a 3.3 * 10^5 cells/mL dilution in assay DMEM by means of a CASY cell counter device using a 60um capillary. 6 uL of the mixture were dispensed per well (about 1 * 10^3 host-cells and 1 * 10^3 parasites) with a Multidrop Combi dispenser. […] In all wells, the percentage of DMSO never exceeded 0.5%. Plates incubated for four days at 37C, 5% CO2. The substrate used for the assay fluorescence intensity (FLINT) readout was resorufin-beta-D-galactopiranoside (Sigma-Aldrich) at 5uM per well. It was diluted in PBS supplemented with the soft detergent Igepal (Fluka).; assay type: functional, organism-based, Mus musculus; conditions: Tulahuen, NIH3T3
[8] = system: Trypanosoma brucei brucei; assay: GSK_TCAKS: pIC50 Trypanosoma brucei viability assay using luminiscence. Assay plates (1536-well) were prepared. T. brucei cultures were harvested and counted in a CASY cell counter. A parasite suspension was prepared at a final concentration of 5 * 10^4 cells/mL in complete HMI9 medium and 6uL was dispensed to all wells containing compounds using a Multidrop Combi dispenser. 6uL of HMI9 media with 0.4% DMSO were dispensed to control columns. Plates were incubated for 24 h at 37C, 5% CO2 then tempered for 10 min at room temperature. ATP content was quantified by adding 4 uL of CellTiter-Glo Reagent (Promega) according to the manufacturer's instructions. Luminescence was measured using a ViewLux.; assay type: functional, organism-based; conditions: Lister 427, CASY
Trypanosoma cruzi [9] = assay: GSK_TCAKS: pIC50 Trypanosoma cruzi Imaging: Amastigotes/Cell. […] Cells were then washed once with PBS before infection. T. cruzi trypomastigotes, collected at days 5 to 8 after infection from LLC-MK2 parasite infected cultures, were allowed to swim out for 4h at 37C from a centrifuged pellet (2,500 rpm/10 min/room temperature). Trypomastigotes were then collected and counted in a CASY Cell Counter. Trypomastigotes, in supplemented DMEM, were added to H9c2 cultures in a multiplicity of infection of 1 and incubated for 18 h. Cells were washed once with PBS before incubation of the infected H9c2 monolayer with trypsin (Life-Technologies) to detach cells from the flask. Cells were counted in a CASY Cell Counter using a 150 um capillary and their density set at 5 * 10^4 cells per mL in supplemented assay DMEM. Infected H9c2 were dispensed into 384-well poly-lysine coated assay plates at 50uL per well using a Multidrop Combi dispenser. After seeding them, the plates were incubated at 37C, 5% CO2 for 72h. Cultures were then fixed and stained by addition of 50 uL of a solution containing 8% formaldehyde and 4 uM DRAQ5 DNA dye (BioStatus, UK) per well. […] Five images were collected per well for reliable statistical analysis. Automated image analysis was performed with a script developed on Acapella High Content Imaging and Analysis Software (PerkinElmer). Output: number of amastigotes per cell as infection level measurement.; assay type: functional, organism-based, Rattus norvegicus; conditions: H9c2, 4 h
Trypanosoma cruzi [10] = assay: as §2, with “H2C9” for “Trypanosoma cruzi”, “H9c2 Host Cardiomyocytes.” for “Infected Cells.”, “Number” for “percentage”, “H9c2 Host Cardiomyocytes nuclei to determine drug-related cytotoxicity.” for “infected cells per well as a second infection marker.”; assay type: functional, organism-based, Rattus norvegicus; conditions: H9c2, 4 h
Leishmania donovani [11] = assay: as §1, with “THP-1 Host” for “Infected”, “THP-1 cell count” for “Percent of infected macrophage cells”; assay type: functional, organism-based, Homo sapiens
Leishmania donovani [12] = assay: as §1, with “Amastigotes/Macrophages.” for “Infected Macrophages.”, “Average number” for “Percent”, “amastigotes per” for “infected”, “cell” for “cells”; assay type: functional, organism-based, Homo sapiens; conditions: THP-1

Row | Structure (SMILES) | IC50 (Leishmania donovani [1]) [µM] | IC50 (Leishmania donovani [2]) [µM] | IC50 [3] [µM] | IC50 (NIH3T3) [µM] | IC50 [4] [µM] | IC50 (Trypanosoma cruzi [5]) [µM] | IC50 at 48 h [6] [µM] | IC50 (Trypanosoma cruzi [7]) [µM] | IC50 [8] [µM] | IC50 (Trypanosoma cruzi [9]) [µM] | IC50 (Trypanosoma cruzi [10]) [µM] | IC50 (Leishmania donovani [11]) [µM] | IC50 (Leishmania donovani [12]) [µM]
1 | COc1ccc(C2CC(c3ccccc3Cl)=NN2C(=O)CNC(=O)C2CCC2)cc1 (stereo not given) | > 50.1 | > 50.1 | 0.316 | 31.6 | 50.1 | 1.58 | > 100 | 2.82 | 0.501 | 1 | > 50.1 | > 50.1 | > 50.1
2 | OCCCNc1nc(Nc2ccncc2)nc2ccccc12 | 39.8 | > 50.1 | 25.1 | > 50.1 | > 100 | 1.26 | > 100 | 0.708 | > 39.8 | 0.2 | > 50.1 | > 50.1 | > 50.1
3 | CCOc1cnn(C)c(=O)c1Nc1ccc(C(=O)NCc2ccc(F)cc2)cc1 | 31.6 | > 50.1 | > 39.8 | > 50.1 | 3.98 | 0.1 | > 100 | 0.251 | > 39.8 | 0.126 | > 50.1 | 31.6 | > 50.1
4 | O=c1ccn(-c2ccc([N+](=O)[O-])cc2Cl)c2ccc(F)cc12 | > 50.1 | > 50.1 | 25.1 | > 50.1 | 15.8 | 3.98 | > 100 | 1.58 | > 39.8 | 1.26 | > 50.1 | > 50.1 | > 50.1
5 | CS(=O)(=O)c1cccc(-c2cnc(N)c3c(-c4ccc(CO)cc4)csc23)c1 | 39.8 | 10 | 2 | 25.1 | 3.16 | 0.631 | > 100 | 0.794 | 5.01 | 0.316 | > 50.1 | > 50.1 | 7.94
6 | Cc1cccc(NS(=O)(=O)c2ccc3c(c2)C(=O)c2cc(S(=O)(=O)Nc4cccc(C)c4C)ccc2-3)c1C | > 50.1 | > 50.1 | 7.94 | > 50.1 | > 100 | 0.398 | > 100 | 0.398 | 10 | 0.398 | 31.6 | > 50.1 | > 50.1
7 | Cc1ccc(C)c(-n2nnnc2Sc2nc([N+](=O)[O-])nn2C)c1 | > 50.1 | > 50.1 | 12.6 | > 50.1 | > 100 | 0.794 | > 100 | 0.501 | 15.8 | 0.251 | > 50.1 | > 50.1 | > 50.1
8 | COc1cccc(C(=O)[C@H]2C[C@@H]2CN(Cc2cccnc2)Cc2cccnc2)c1 | 0.158 | > 50.1 | 31.6 | 20 | 0.0631 | 0.0631 | > 100 | 0.1 | > 39.8 | 0.0501 | > 50.1 | 39.8 | 7.94
9 | CCCc1nc2nc(N)nc(N)c2cc1CC | 2 | 39.8 | 20 | 31.6 | > 100 | 0.316 | 20 | 0.355 | 25.1 | 0.0794 | 12.6 | > 50.1 | 39.8
10 | O=C(NCC1CCCCC1)c1cc(=O)c2ccccc2o1 | 5.01 | 15.8 | 1 | 31.6 | > 100 | 0.631 | 25.1 | 0.447 | 1.26 | 0.501 | 31.6 | > 50.1 | 6.31
